Laboratory results as given in patent publication US20090186814A1, “Methods and Compositions for Reducing Ischemia-Derived Microvascular Damage” (priority 2005, published 2009).
Like-named read-outs stand apart in the source and are kept apart here. Ends that are not written are not given here. Peptide text beside a SMILES is read from it. * marks the point of attachment. Cbz = O=C(OCc1ccccc1)*; CH2F = FC*

Assays:
caspase-3 [1] = details: cited from earlier work
rat myocardium = details: in vivo rat myocardium; cited from earlier work
rabbit femoral arteries = details: in vivo rabbit femoral arteries; cited from earlier work
mouse hearts = assay: Ex vivo model of global ischemia and reperfusion injury, Langendorff-perfused mouse hearts (WT and δV1-1 transgenic)
Protocol: Transgenic mice (TG) that selectively express δV1-1 in myocytes were created using α- myosin heavy chain promoter. Hah, H. S., et al., Circ. Res. 91:741-748 (2002). Hemodynamic and morphometric parameters in these transgenic mice, as measured by echocardiographic measurements in vivo, were not different from those measured in wild type mice (WT). Inagaki, K., et al., Circulation 108:869-875 (2003). Mice were heparinized (4000U/kg IP) and anesthetized with sodium pentobarbital (200mg/kg IP). Hearts were perfused with an oxygenated Krebs-Henseleit buffer at 37° C. in a Langendorff system as previously described in Inagaki, K., et al., Circulation 108:869-875 (2003). Hearts were subjected to a 30-minute global ischemia and a 120-minute full reperfusion. The coronary flow rate was kept constant at 3 mL/minute (0.04L/min/g; initial coronary perfusion pressure: WT 67.4±5.1, WT+δV1-1 61.0±4.6, TG 62.6±3.9, TG+δV1-1 64.6±5.4 mmHg; PENS, n=5 for each group; FIG. 1) using an adjustable-speed rotary pump during the experiment to provide 60-80 mmHg of initial coronary perfusion pressure (CPP) as previously reported in Webster, K. A., et al., J. Clin. Invest. 104:239-252 (1999). CPP was measured through a sidearm in the Langendorff system. Coronary vascular resistance (CVR) was defined as CPP divided by coronary flow rate. Hearts were perfused with Tat-conjugated δV1-1 [50 nmol/L; Tat-conjugated δV1-1 described in Chen, L. et al., Proc. Natl. Acad. Sci. U.S.A. 98:11114-11119 (2001)] or vehicle (control) during the first 20 minutes of reperfusion (n=5 for each group). Coronary perfusion effluent was collected to determine creatine phosphokinase (CPK) release.
(§1) At the end of the reperfusion, 1 -mm-thick transverse sections of mouse hearts were incubated in triphenyltetrazolium chloride solution (TTC) (1% in phosphate buffer, pH 7.4) at 37° C. for 15 minutes as described in Inagaki, K. et al., Circulation 108:869-875 (2003) to determine the viable myocardium. One cm-thick transverse segments of the hearts were stained with TTC. Infarct size was expressed as a percentage of the total area at risk. Immunohistochemistry was performed on cardiac tissue two hours after reperfusion in murine hearts (n=5 for each group) as described in Vakeva, A. P., et al., Circulation 97:2259-2267 (1998). Hearts were immediately frozen in Optimal Cutting Temperature (OCT) Compound, and 5-μm-thick cryosections were obtained. Sections were fixed with 4% formaldehyde, blocked with 1 % normal donkey serum and incubated with mouse monoclonal anti-(x-actinin antibody (Sigma-Aldrich) or goat anti-PECAM-1 antibody (Santa Cruz Biochemicals) to distinguish between endothelial cells and myocytes. Secondary antibody treatments were carried out using goat anti-mouse IgG antibody conjugated with FITC or donkey anti-goat lgG antibody conjugated with FITC (Molecular Probe). Terminal deoxynucleotidyl transferase-mediated dUTP nick-end labeling (TUNEL) staining was performed for detection of apoptotic cells (Roche) and nuclei were counterstained with 4, 6-diamidino-2-phenylindole (DAPI; Sigma-Aldrich). Tissue samples from the non-ischemic area were used as negative control. TUNEL-positive nuclei were counted in a total of 1,500 myocytes and 500 of endothelial cells over several random fields.
Data are expressed as mean±SEM. Two-way ANOVA for repeated measures was used for time-course of cardiac function and vascular function, 1-way factorial ANOVA with Fisher's test for multiple comparisons, and unpaired or paired student's t-test for difference between 2 groups. P<0.05 was considered statistically significant.

Yorkshire swine = format: in vivo, pig; set-up: key to CFR(Cx) / CFR(LAD): hyperemic average peak velocity ÷ baseline average peak velocity; details: for CFR(LAD): adenosine hyperemia; for CFR(Cx): unaffected left circumflex artery
Protocol: Yorkshire swine (30-45kg) were maintained during the every procedure under anesthesia by inhaled isoflurane (1-2%). A bolus of 300 IU/kg heparin was administered intravenously through the sheath (6 French) placed in the carotid artery. A 10 mm, over-the-wire angioplasty balloon was placed in the left anterior descending artery (LAD) proximal to the first diagonal branch. The balloon was inflated to occlude the LAD for 30 minutes. At the last 1 minute of a 30-minute ischemia, Tat-conjugated δV1-1 (250 ng/kg) or saline was infused at 1 mL/minute for 1 minute through the guide-wire lumen of the balloon catheter (n=9 for each group). Left ventriculogram (LVG) was obtained (40° left anterior oblique projection, 30 frames/sec) to measure cardiac function at 5 time points; before ischemia (baseline), 30 minutes, 24 hours, 5 days, and 10 days after ischemia (n=9 for each group). Ejection fraction (EF) and hypokinetic area were calculated using the software (Plus Plus, Sanders Data System, Calif.) with elimination of frames after premature ventricular contraction beats. Blood pressure and heart rate were measured just before LVG measurements at each time point through the water-filled catheter (Table 1). Coronary flow was measured by a 0.014″ Doppler-tipped guide wire (Flowire, JOMED Inc.) in the LAD, and the unaffected, left circumflex artery (LCx). The wire tip was placed 2 cm distal from the balloon-occluded site in the LAD. After stable baseline flow velocity was recorded, adenosine [endothelium-independent vasodilator; 48 μg; Suryapranata, H., et al., Circulation 89:1109-1117 (1994)] was infused intracoronarily to induce hyperemia (a transient increase in coronary blood flow through microvascular vasodilation) at 5 time points: before ischemia (baseline), 30 minutes, 24 hours, 5 days, and 10 days after ischemia (n=9 for each group). Bradykinin [endothelium-dependent vaodilator, 0.2ml of a 3×10^−6M in saline; Rodriguez-Sinovas, A., et al., J. Appl. Physiol. 95:81-88 (2003)] was also infused intracoronary before ischemia and 24 hours after reperfusion (n=6 for each group). Coronary flow reserve was calculated by dividing the average peak velocity (APV) at hyperemic phase by the baseline APV as described in Suryapranata, H., et al., Circulation 89:1109-1117 (1994). After reperfusion, to determine the area at risk in porcine hearts, LAD ligation was performed at the balloon-occluded site and Evan's Blue (0.0025%) was perfused as previously described in Inagaki, K., et al., Circulation 2304-2307 (2003). All other methods were performed as described in Example 1.

[2] = test system: endothelial cells and myocytes of porcine hearts; assay: TUNEL staining and electron microscopy of porcine cardiac tissue 4 hours after reperfusion; format: in vivo, pig
Protocol: as §1
Immunohistochemistry was performed on cardiac tissue as described in Example 1 with the exception that immunohisotchemistry was performed 4 hours after reperfusion in porcine hearts (n=3 for each group).
Electron microscopy study was performed on porcine cardiac tissue 4 hours after reperfusion (n=3 for each group). Samples taken from the mid-myocardium were fixed (FIG. 3A) and prepared as previously reported in Gottlieb, R. A., et al., J. Clin Invest. 94:1621-1628 (1994). Ultra-thin sections were stained with uranyl acetate lead citrate and examined with the H300 (Hitachi) electron microscopy. All other methods were as previously described in Examples 1 and 2.

adult rat cardiomyocytes = details: cited from earlier work
caspase-3 [3] = details: myocardium; cited from earlier work
[4] = further δV1-1 infusion to the transgenic hearts
[5] = transgenic mouse hearts, exogenous δV1-1
[6] = wild type hearts, exogenous δV1-1
[7] = wild type hearts, δV1-1 delivered through coronary arteries, 50 nmol/L, first 20 minutes of reperfusion
[8] = LAD, Baseline (before ischemia)
[9] = electron microscopy, 4 hours after reperfusion
[10] = electron microscopy, 4 hours after reperfusion, listed as δV1-
[11] = four hours after reperfusion, TUNEL, n=3

Compound: CC(=O)c1c(O)c(C)c(O)c(Cc2c(O)c3c(c(C(=O)/C=C/c4ccccc4)c2O)OC(C)(C)C=C3)c1O [rottlerin]
- caspase-3 activity (caspase-3 [1]): attenuated

Compound: COC(=O)C[C@H](NC(=O)[C@H](C)NC(=O)[C@@H](NC(=O)OCc1ccccc1)C(C)C)C(=O)CF [ZVADfmk] (Cbz-Val-Ala-Asp(OMe)-CH2F)
- reperfusion injury (rat myocardium): reduces reperfusion injury
- staurosporin-induced endothelial apoptosis (rabbit femoral arteries): reduces

Compound: δV1-1: δPKC inhibitor peptide, SEQ ID NO:1 (SFNSYELGSL), amino acids 8-17 of rat δPKC; used Tat-conjugated in the examples (also: Tat conjugate in examples; listed as Rattus norvegicus)
- coronary vascular resistance (CVR) during reperfusion (mouse hearts; further treatment of transgenic mouse hearts): significantly minimized the rise of CVR
- CPK release (mouse hearts; [4]): unaffected
- infarct size (mouse hearts; [4]): unaffected
- TUNEL-positive myocytes (mouse hearts; [5]): without any further effect
- decrease of TUNEL-positive endothelial cells (mouse hearts; [5]): 80%
- reduction of number of TUNEL positive endothelial cells (mouse hearts; [6]): 80%
- reduction of number of TUNEL positive myocytes (mouse hearts; [6]): 80%
- decrease in CPK release (mouse hearts; [7]): about 70%
- decrease in infarct size (mouse hearts; [7]): about 70%
- CFR(LAD) (Yorkshire swine; 30 min R): 2.00 ± 0.20
- coronary flow reserve in LAD following bradykinin infusion (Yorkshire swine; 24 hours after reperfusion, n=6): did not decrease
- CFR(LAD) (Yorkshire swine; 24 hr R): 2.50 ± 0.24
- CFR(LAD) (Yorkshire swine; 5 days R): 2.68 ± 0.21
- CFR(LAD) (Yorkshire swine; 10 days R): 2.67 ± 0.27
- ejection fraction (Yorkshire swine; 10 days after ischemia, n=9): 69.9±1.6%
- hypokinetic area (Yorkshire swine; 10 days after ischemia, n=9): 4.7±2.0%
- CFR(LAD) (Yorkshire swine; Baseline (before ischemia)): 2.52 ± 0.16
- b-APV (baseline average peak flow velocity) (Yorkshire swine; Cx, 30 min R): 20.3 ± 3 cm/s
- h-APV (hyperemia average peak flow velocity) (Yorkshire swine; Cx, 30 min R): 37 ± 3 cm/s
- b-APV (baseline average peak flow velocity) (Yorkshire swine; Cx, 24 hr R): 15 ± 2 cm/s
- h-APV (hyperemia average peak flow velocity) (Yorkshire swine; Cx, 24 hr R): 30 ± 4 cm/s
- b-APV (baseline average peak flow velocity) (Yorkshire swine; Cx, 5 days R): 25 ± 5 cm/s
- h-APV (hyperemia average peak flow velocity) (Yorkshire swine; Cx, 5 days R): 55 ± 10 cm/s
- b-APV (baseline average peak flow velocity) (Yorkshire swine; Cx, 10 days R): 25 ± 3 cm/s
- h-APV (hyperemia average peak flow velocity) (Yorkshire swine; Cx, 10 days R): 55 ± 5 cm/s
- b-APV (baseline average peak flow velocity) (Yorkshire swine; Cx, Baseline (before ischemia)): 24 ± 2 cm/s
- h-APV (hyperemia average peak flow velocity) (Yorkshire swine; Cx, Baseline (before ischemia)): 61 ± 3 cm/s
- b-APV (baseline average peak flow velocity) (Yorkshire swine; LAD, 30 min R): 27 ± 4 cm/s
- h-APV (hyperemia average peak flow velocity) (Yorkshire swine; LAD, 30 min R): 49 ± 4 cm/s
- b-APV (baseline average peak flow velocity) (Yorkshire swine; LAD, 24 hr R): 18 ± 1 cm/s
- h-APV (hyperemia average peak flow velocity) (Yorkshire swine; LAD, 24 hr R): 46 ± 6 cm/s
- b-APV (baseline average peak flow velocity) (Yorkshire swine; LAD, 5 days R): 24 ± 3 cm/s
- h-APV (hyperemia average peak flow velocity) (Yorkshire swine; LAD, 5 days R): 67 ± 9 cm/s
- b-APV (baseline average peak flow velocity) (Yorkshire swine; LAD, 10 days R): 25 ± 4 cm/s
- h-APV (hyperemia average peak flow velocity) (Yorkshire swine; LAD, 10 days R): 57 ± 6 cm/s
- b-APV (baseline average peak flow velocity) (Yorkshire swine; [8]): 24 ± 3 cm/s
- h-APV (hyperemia average peak flow velocity) (Yorkshire swine; [8]): 58 ± 7 cm/s
- resting APV and coronary flow reserve in left circumflex artery (LCx, control artery) (Yorkshire swine; all time points): remained normal
- infarct size (Yorkshire swine; intracoronary treatment at the time of reperfusion, 10 days after ischemia, n=9): 4.4±1.1%
- blood pressure, heart rate or vessel diameter vs. control group (Yorkshire swine; pig, in vivo): no significant differences
- CFR(Cx) (Yorkshire swine; 30 min R): 1.73 ± 0.21
- CFR(Cx) (Yorkshire swine; 24 hr R): 1.96 ± 0.04
- CFR(Cx) (Yorkshire swine; 5 days R): 2.01 ± 0.14
- CFR(Cx) (Yorkshire swine; 10 days R): 2.46 ± 0.20
- CFR(Cx) (Yorkshire swine; Baseline (before ischemia)): 2.44 ± 0.10
- time until coronary flow reserve (adenosine, LAD) was normalized (Yorkshire swine; δV1-1-treated pigs): ≤ 24 h
- coronary flow reserve following adenosine infusion in LAD after reperfusion (Yorkshire swine; δV1-1-treated pigs, 250 ng/kg intracoronary at last 1 minute of ischemia): minor decrease
- endothelial cell swelling [2, 9]: minimal swelling
- microvasculature lumen [2, 9]: patent
- myocyte damage (contraction bands, swollen mitochondria) [2, 9]: no such pathological changes were observed
- obstruction of capillaries by red and white blood cells [2, 9]: rarely seen
- endothelial cell swelling [2, 10]: slight endothelial swelling
- myocyte damage (contraction bands, swollen mitochondria) [2, 10]: neither contraction bands nor swollen mitochondria
- decrease of apoptosis in endothelial cells [2, 11]: about 70%
- decrease of apoptosis in myocytes [2, 11]: about 70%
- hyperglycemia-induced apoptosis (adult rat cardiomyocytes): inhibits
- free radical formation (adult rat cardiomyocytes; hyperglycemia): inhibits
- reperfusion-induced caspase-3 activity (caspase-3 [3]): reduced
